Measured values as given in ChEMBL document CHEMBL4706771, “Discovery of Orally Bioavailable Ligand Efficient Quinazolindiones as Potent and Selective Tankyrases Inhibitors” (ACS Med Chem Lett, 2021).
Activity calls are given as the source filed them. The rule behind the calls is not given here.

Legend:
[1] = Volume of distribution in Sprague-Dawley rat at 8.6 mg/kg, po or 0.5 mg/kg, iv; format: ADME, organism-based; settings: in vivo
[2] = Dose normalised AUC in Sprague-Dawley rat at 8.6 mg/kg, po; format: ADME, organism-based; settings: in vivo
[3] = Oral bioavailability in Sprague-Dawley rat at 8.6 mg/kg; format: ADME, organism-based; settings: in vivo
[4] = Clearance in C57 mouse at 3 mg/kg, po or 1 mg/kg, iv; format: ADME, organism-based; settings: in vivo
[5] = Half life in C57 mouse at 3 mg/kg, po or 1 mg/kg, iv; format: ADME, organism-based; settings: in vivo
[6] = Clearance in Beagle dog at 2 mg/kg, po or 1 mg/kg, iv; format: ADME, organism-based, Canis lupus familiaris; settings: in vivo
[7] = Volume of distribution in Beagle dog at 2 mg/kg, po or 1 mg/kg, iv; format: ADME, organism-based, Canis lupus familiaris; settings: in vivo
[8] = Dose normalised AUC in Beagle dog at 2 mg/kg, po; format: ADME, organism-based, Canis lupus familiaris; settings: in vivo
Cytochrome P450 2C9 = Cytochrome P450 2C9 (Homo sapiens, UniProt P11712); test: Inhibition of CYP2C9 (unknown origin); format: ADME
[9] = Mutagenicity in Salmonella typhimurium TA1535 by ames test; format: toxicity; settings: salmonella enterica subsp. enterica serovar typhimurium
[10] = Mutagenicity in Salmonella typhimurium TA1537 by ames test; format: toxicity; settings: salmonella enterica subsp. enterica serovar typhimurium
[11] = Mutagenicity in Salmonella typhimurium TA98 by ames test; format: toxicity; settings: salmonella enterica subsp. enterica serovar typhimurium
NCI-H292 [12] = test: Antitumor activity against human NCI-H292 cells xenografted in BALB/c mouse assessed as reduction in tumor volume at 10 to 30 mg/kg, po administered for 14 days and measured on day 14; format: functional, organism-based; settings: dose 10-30 mg/kg, time 14.0 day
NCI-H292 [13] = test: Antitumor activity against human NCI-H292 cells xenografted in BALB/c mouse assessed as maximal potency administered orally for 14 days and measured on day 14; format: functional; settings: time 14 day
[14] = Toxicity in Wistar Han rat assessed as reduction in body weight at 10 mg/kg, po administered for 7 days and measured on day 7; format: organism-based; set-up: scale not given: the % may be the effect or the level left; settings: in vivo, 168 h, time 7 day
[15] = Toxicity in Wistar Han rat assessed as closed eyes at >= 100 mg/kg, po administered for 7 days and measured on day 7; format: organism-based; settings: in vivo, 168 h, time 7 day
[16] = Toxicity in Wistar Han rat assessed as abnormal mucoid fecal consistency at >= 100 mg/kg, po administered for 7 days and measured on day 7; format: organism-based; settings: in vivo, 168 h, time 7 day
[17] = Toxicity in Wistar Han rat assessed as abnormal soft fecal consistency at >= 100 mg/kg, po administered for 7 days and measured on day 7; format: organism-based; settings: in vivo, 168 h, time 7 day
[18] = Toxicity in BALB/c mouse xenografted with human NCI-H292 cells assessed as tolerability at 10 to 30 mg/kg, po for 14 days and measured on day 14; format: organism-based; settings: in vivo, 336 h, dose 10-30 mg/kg, time 14 day

Cytochrome P450 2C9, sequence (P11712 whole entry): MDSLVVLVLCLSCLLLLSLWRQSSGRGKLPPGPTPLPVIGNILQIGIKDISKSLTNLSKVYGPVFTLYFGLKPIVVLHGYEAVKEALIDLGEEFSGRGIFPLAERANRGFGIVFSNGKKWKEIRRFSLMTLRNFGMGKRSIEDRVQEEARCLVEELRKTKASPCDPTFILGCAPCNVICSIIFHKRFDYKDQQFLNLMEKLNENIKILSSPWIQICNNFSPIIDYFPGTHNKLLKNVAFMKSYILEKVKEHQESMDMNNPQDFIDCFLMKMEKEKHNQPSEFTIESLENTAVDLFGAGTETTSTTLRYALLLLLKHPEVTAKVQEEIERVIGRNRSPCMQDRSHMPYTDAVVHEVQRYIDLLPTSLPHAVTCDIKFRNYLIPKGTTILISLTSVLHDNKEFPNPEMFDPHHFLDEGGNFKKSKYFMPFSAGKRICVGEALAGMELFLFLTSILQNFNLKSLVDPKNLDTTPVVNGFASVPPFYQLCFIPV

- Vd [1]: 0.97 L/kg
- AUC/dose [2]: 6651 ng·h/mL
- bioavailability [3]: 133%
- clearance [4]: 1.44 mL/min/kg
- half-life [5]: 10.9 h
- clearance [6]: 3.15 mL/min/kg
- Vd [7]: 2.12 L/kg
- AUC/dose [8]: 2937 ng·h/mL
- IC50 (Cytochrome P450 2C9): 84 µM
Structure (SMILES): Cc1cccc2c1c(=O)n(C[C@H]1CC[C@H](C(=O)O)CC1)c(=O)n2Cc1cccc(C(F)(F)F)c1C#N
- Activity [9]: Non-Toxic
- Activity [10]: Non-Toxic
- Activity [11]: Non-Toxic
- Activity (NCI-H292 [12]): Active
- ECmax (NCI-H292 [13]): 10 mg/kg
- Activity [14]: 8%
- Activity [15]: Toxic
- Activity [16]: Toxic
- Activity [17]: Toxic
- Activity [18]: Non-Toxic
